Results: PMC6677754, “In silico design and optimization of selective membranolytic anticancer peptides” (Scientific Reports, 2019)
Read-outs that look alike come from different tables or passages of the source. Peptide text beside a SMILES is read from it.

Columns and labels:
[1] = test system: noncancer HDMEC primary cells (human dermal microvascular endothelial cells); test: Cell viability assay (MTT); format: cell-based; conditions: Table S2; noncancer primary cells; MTT, 24 h; mean ± sd; N = 2 independent measurements with six technical replicates each (Figs S6-S8)
Description: (§1) 10% fetal bovine serum and 1% penicillin-streptomycin (Thermo Fisher Scientific, Waltham, MA, USA). The cultures were kept at 37°C in a 5% CO2 atmosphere incubator (Thermo Fisher Scientific, Waltham, MA, USA) and split every two to three days to new culture flasks. Cells no older than 20 passages were used for experiments.
(§2) For splitting, the cell culture media was aspirated, the cells were washed with 0.01 M phosphate buffered saline (PBS, Gibco, Thermo Fisher Scientific, Waltham, MA, USA) and trypsin-EDTA (trypsin - ethylene diamine tetraacetic acid, Fisher scientific, UK) was added to the cell layer to detach them from the flask surface. After incubation for 2 min at 37°C, cells were resuspended with an equal volume of DMEM media and centrifuged at 310 g for 5 min at 4°C. After removal of the supernatant the cells were resuspended in DMEM cell media and split into new cell culture flasks at a 1/3 to 1/5 ratio.
(§3) Determination of the anticancer peptides half effective concentration (EC50) was performed by a 3-(4,5-dimethylthiazol-2-yl)-2,5-diphenyltetrazolium bromide (MTT) assay, as described elsewhere21. Briefly, […] were seeded in each well of a 96-well plate and left to adhere and […]
(§4) sulfoxide (DMSO, Fisher Scientific, UK) at an intermediate concentration of 1 mM. The peptides were then diluted in a 2-fold dilution series starting at 100 μM with DMEM culture media. Cells were incubated with the peptide solutions for 24 h. After this time, the cell media was removed and the cells were incubated for 1 h with a 0.5 mg mL−1 MTT solution to allow enough time for formazan crystal formation (Sigma Aldrich, Steinheim, Germany). The supernatant was removed and 100 μL of DMSO were added into each well to resuspend the formazan crystals.
(§5) After manually shaking the plates to completely dissolve the crystals, the absorbance was measured at 540 nm in a Tecan Infinity M1000 spectrophotometer. The cell viability was determined based on the quantification of the color intensity in each culture well, considering the absorbance obtained by the control media without peptides as a 100% survival. The resultant sigmoidal curves were analyzed with the drc22 R package using a log-logistic model

[2] = test system: A549 lung adenocarcinoma cell line; test: Cell viability assay (MTT); format: cell-based, human; conditions: MTT
Description: as §1, §2, §3, §4, §5

[3] = test system: MCF7 breast adenocarcinoma cell line; test: Cell viability assay (MTT); format: cell-based, human
Description: as §1, §2, §3, §4, §5

[4] = test system: human erythrocytes; test: Hemolysis assay; format: cell-based; conditions: red cells of human, 1 h
Description: Human erythrocytes were freshly ordered at the Blutspende Zürich. Erythrocytes were washed 3 times with a […] phosphate buffered saline (PBS, Gibco, Thermo Fisher Scientific, Waltham, MA, USA) solution centrifuging at 800 g for 10 min or until the supernatant appeared clear to remove the blood plasma. A 5% v/v erythrocytes : PBS solution was prepared for direct use. For HC50 determination, peptides were dissolved in PBS at an intermediate concentration of 1 mM. A dilution series of the peptide from 200 to 6.25 μM was plated in a round-bottomed 96-well plate in triplicates, with a volume of 50 μL per well. PBS buffer and a solution of 0.1% Triton-X-100 (Fisher Chemical, Loughborough, UK) in PBS were employed as negative and positive controls, respectively. 50 μL of the 5% erythrocyte solution were added in each well and the plates were incubated at 37°C for 1 h. After this time, 100 μL PBS were added to each well and plates were centrifuged at 800 g for 10 min. 100 μL of the supernatant were transferred to a flat-bottomed 96-well plate and the absorbance was measured at 540 nm in a Tecan Infinity M1000 spectrophotometer plate reader. The hemolysis percentage was calculated, considering the absorbance values of the Triton and PBS wells as 100% and 0% hemolysis, respectively.
The resultant sigmoidal curves were analyzed with the drc22 R package using a log-logistic model with 3 fixed parameters to obtain the HC50 values. […]
NCI-60 screening procedure […]
Each peptide was tested in a 5-concentration assay, starting at 10^-4 M and diluting 10-fold to the lowest 10^-8 M concentration. The peptides were incubated for 48 h and the cell concentration was assayed by using the sulforhodamine B assay25 and optical density measurements. The growth inhibition (GI50) value24, measures the growth inhibitory power of the drug agent. The GI50 value is the concentration of the test drug for which the condition in Eq. S1 is met, where T is the optical density of the test well after a 48-h exposure to the peptide, T0 the optical density before applying the peptide drug and C the control optical density of a well where no peptide was applied.

[5] = Table S2, 24 h, mean ± sd, N = 2 independent measurements with six technical replicates each (Figs S6-S8), read-out: A549 EC50 /µM
[6] = Table S2, 24 h, mean ± sd, N = 2 independent measurements with six technical replicates each (Figs S6-S8)

Structure (SMILES) | EC50 [1] [µM] | EC50 [2, 5] [µM] | EC50 [3, 6] [µM] | Eryhtr. HC50 /µM [4] [µM] | EC50 ([2]; 10^4 cells per well, 24 h with peptide, 2-fold dilution series from 100 µM in DMEM, absorbance 540 nm, mean ± std, N = 3, read-out: A549 EC50/µM) [µM] | EC50 ([3]; 10^4 cells per well, 24 h with peptide, 2-fold dilution series from 100 µM in DMEM, absorbance 540 nm, mean ± std, N = 3) [µM]
CC[C@H](C)[C@H](NC(=O)[C@@H](NC(=O)[C@H](Cc1c[nH]cn1)NC(=O)[C@H](Cc1c[nH]c2ccccc12)NC(=O)[C@H](C)NC(=O)[C@H](CCCNC(=N)N)NC(=O)[C@H](CCC(=O)O)NC(=O)[C@H](Cc1ccc(O)cc1)NC(=O)[C@H](Cc1ccc(O)cc1)NC(=O)[C@@H](NC(=O)[C@H](Cc1c[nH]cn1)NC(=O)[C@H](CC(C)C)NC(=O)[C@H](Cc1c[nH]cn1)NC(=O)[C@H](CCCCN)NC(=O)[C@H](CC(C)C)NC(=O)[C@H](Cc1ccccc1)NC(=O)[C@@H](N)CCCNC(=N)N)[C@@H](C)O)C(C)C)C(=O)NCC(=O)N[C@@H](Cc1c[nH]cn1)C(=O)N[C@@H](CC(C)C)C(N)=O [Off2.8] (H-RFLKHLHTYYERAWHVIGHL-NH2) | 2 ± 2 | > 100 | > 100 | > 200 | – | –
CC[C@H](C)[C@H](NC(=O)[C@H](CC(C)C)NC(=O)[C@@H](N)CCCNC(=N)N)C(=O)N[C@@H](CCCCN)C(=O)N[C@@H](CCCNC(=N)N)C(=O)N[C@@H](CC(C)C)C(=O)N[C@@H](CCCCN)C(=O)N[C@H](C(=O)N[C@@H](Cc1ccccc1)C(=O)N[C@H](C(=O)N[C@@H](CCCNC(=N)N)C(=O)N[C@@H](CCCCN)C(=O)N[C@H](C(=O)N[C@@H](Cc1c[nH]c2ccccc12)C(=O)N[C@@H](CCCCN)C(=O)N[C@@H](Cc1c[nH]c2ccccc12)C(=O)N[C@H](C(=O)NCC(=O)N[C@@H](Cc1c[nH]cn1)C(=O)N[C@@H](Cc1ccccc1)C(N)=O)C(C)C)[C@@H](C)O)C(C)C)[C@@H](C)O [Off7] (H-RLIKRLKTFVRKTWKWVGHF-NH2) | 12 ± 3 | 52 ± 2 | 39 ± 3 | 95 ± 7 | – | –
CC[C@H](C)[C@H](NC(=O)[C@H](CCCNC(=N)N)NC(=O)[C@H](Cc1ccccc1)NC(=O)[C@H](CC(C)C)NC(=O)[C@H](CCCCN)NC(=O)[C@H](CCCCN)NC(=O)[C@H](Cc1c[nH]c2ccccc12)NC(=O)[C@H](Cc1ccc(O)cc1)NC(=O)[C@@H](NC(=O)[C@H](CCCCN)NC(=O)[C@@H](NC(=O)[C@H](CCCCN)NC(=O)[C@H](CCCCN)NC(=O)[C@H](Cc1ccccc1)NC(=O)[C@@H](NC(=O)[C@@H](N)Cc1c[nH]cn1)[C@@H](C)CC)C(C)C)[C@@H](C)O)C(=O)N[C@@H](CC(C)C)C(=O)NCC(=O)N[C@@H](CCCNC(=N)N)C(=O)N[C@@H](Cc1ccccc1)C(N)=O [Off6] (H-HIFKKVKTYWKKLFRILGRF-NH2) | 5 ± 0.7 | 18 ± 2 | 12 ± 3 | 16 ± 2 | – | –
CC[C@H](C)[C@H](NC(=O)[C@H](CC(C)C)NC(=O)[C@@H](N)CCC(N)=O)C(=O)N[C@@H](CCCCN)C(=O)N[C@@H](CCCCN)C(=O)N[C@@H](CC(C)C)C(=O)N[C@@H](CCCNC(=N)N)C(=O)N[C@H](C(=O)N[C@@H](Cc1c[nH]c2ccccc12)C(=O)N[C@@H](Cc1ccc(O)cc1)C(=O)N[C@@H](CCCNC(=N)N)C(=O)N[C@@H](CCCCN)C(=O)N[C@@H](C)C(=O)N[C@@H](Cc1c[nH]c2ccccc12)C(=O)N[C@@H](Cc1c[nH]cn1)C(=O)N[C@H](C(=O)N[C@@H](CC(C)C)C(=O)NCC(=O)N[C@@H](CCCCN)C(=O)N[C@@H](CC(C)C)C(N)=O)C(C)C)[C@@H](C)O [Off2.2.6] (H-QLIKKLRTWYRKAWHVLGKL-NH2) | 9 ± 1 | 10.6 ± 0.8 | 6.5 ± 0.2 | > 200 | – | –
CC[C@H](C)[C@H](NC(=O)[C@H](CCCCN)NC(=O)CNC(=O)[C@@H](NC(=O)[C@@H](NC(=O)[C@H](Cc1c[nH]cn1)NC(=O)[C@H](Cc1c[nH]c2ccccc12)NC(=O)[C@@H]1CCCN1C(=O)[C@H](CCCCN)NC(=O)[C@H](CCCCN)NC(=O)[C@H](CC(C)C)NC(=O)[C@H](Cc1ccccc1)NC(=O)[C@H](Cc1c[nH]cn1)NC(=O)[C@H](CCCNC(=N)N)NC(=O)[C@H](Cc1ccccc1)NC(=O)[C@H](CCCCN)NC(=O)[C@H](CCCCN)NC(=O)[C@H](Cc1ccc(O)cc1)NC(=O)[C@H](CC(C)C)NC(=O)[C@@H](N)[C@@H](C)O)C(C)C)C(C)C)C(N)=O [Off2.3] (H-TLYKKFRHFLKKPWHVVGKI-NH2) | 167 ± 13 | > 100 | 65 ± 3 | > 200 | – | –
CC[C@H](C)[C@H](NC(=O)[C@H](Cc1c[nH]cn1)NC(=O)[C@H](Cc1c[nH]c2ccccc12)NC(=O)[C@H](C)NC(=O)[C@H](CCCCN)NC(=O)[C@H](CCCNC(=N)N)NC(=O)[C@H](CC(C)C)NC(=O)[C@H](Cc1c[nH]c2ccccc12)NC(=O)[C@@H](NC(=O)[C@H](CCCNC(=N)N)NC(=O)[C@H](Cc1c[nH]c2ccccc12)NC(=O)[C@H](CCCCN)NC(=O)[C@H](CCCCN)NC(=O)[C@H](CC(C)C)NC(=O)[C@H](CC(C)C)NC(=O)[C@@H](N)Cc1c[nH]cn1)[C@@H](C)O)C(=O)N[C@H](C(=O)NCC(=O)N[C@@H](CCCCN)C(=O)N[C@H](C(N)=O)C(C)C)C(C)C [Off2.2.3] (H-HLLKKWRTWLRKAWHIVGKV-NH2) | 6.1 ± 0.5 | 9 ± 1 | 7 ± 1 | 59 ± 6 | – | –
CC[C@H](C)[C@H](NC(=O)[C@H](CC(C)C)NC(=O)[C@@H](N)CCCNC(=N)N)C(=O)N[C@@H](CCCCN)C(=O)N[C@@H](CCCNC(=N)N)C(=O)N[C@H](C(=O)N[C@@H](CCCCN)C(=O)N[C@H](C(=O)N[C@@H](Cc1c[nH]c2ccccc12)C(=O)N[C@@H](Cc1ccc(O)cc1)C(=O)N[C@@H](CCCNC(=N)N)C(=O)N[C@@H](CCCCN)C(=O)N[C@@H](C)C(=O)N[C@@H](Cc1c[nH]c2ccccc12)C(=O)N[C@@H](CCCCN)C(=O)N[C@H](C(=O)N[C@H](C(=O)NCC(=O)N[C@@H](CCCCN)C(=O)N[C@@H](Cc1ccccc1)C(N)=O)C(C)C)C(C)C)[C@@H](C)O)[C@@H](C)CC [Off2.7] (H-RLIKRIKTWYRKAWKVVGKF-NH2) | 23 ± 5 | 15 ± 1 | 11.2 ± 0.7 | > 200 | – | –
CC[C@H](C)[C@H](NC(=O)[C@H](Cc1c[nH]c2ccccc12)NC(=O)[C@H](CCCNC(=N)N)NC(=O)[C@H](CCCNC(=N)N)NC(=O)[C@H](CC(C)C)NC(=O)[C@H](Cc1c[nH]c2ccccc12)NC(=O)[C@H](CC(N)=O)NC(=O)[C@H](Cc1c[nH]cn1)NC(=O)[C@@H](NC(=O)[C@H](CCCCN)NC(=O)[C@H](CCCCN)NC(=O)[C@@H](NC(=O)[C@H](Cc1c[nH]c2ccccc12)NC(=O)[C@@H](N)CCCCN)C(C)C)C(C)C)C(=O)N[C@@H](CCCCN)C(=O)N[C@H](C(=O)N[C@@H](Cc1ccccc1)C(=O)N[C@@H](CCC(=O)O)C(=O)N[C@@H](C)C(=O)N[C@@H](CC(C)C)C(=O)N[C@@H](Cc1ccccc1)C(=O)NCC(N)=O)C(C)C [AmphiArc1] (H-KWVKKVHNWLRRWIKVFEALFG-NH2) | – | – | – | – | 18.4 ± 0.7 | 7 ± 0.5
